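Cultured in 96-well plates, cells were exposed to test compound for 48 hours across five concentrations. Here, GI50 denotes the concentration required for 50% inhibition of growth. TGI is the concentration that stops growth completely.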
How the values were obtained:
Assay in all cases: NCI-60 cell line screen, 48 h
NCI-H226 lung = tested on: NCI-H226 lung
LOX IMVI melanoma = tested on: LOX IMVI melanoma
TK-10 renal = tested on: TK-10 renal
NCI-H460 lung = tested on: NCI-H460 lung
SF-268 CNS = tested on: SF-268 CNS
IGROV1 ovarian = tested on: IGROV1 ovarian
SNB-75 CNS = tested on: SNB-75 CNS
M14 melanoma = tested on: M14 melanoma
BT-549 breast = tested on: BT-549 breast
OVCAR-3 ovarian = tested on: OVCAR-3 ovarian
SF-295 CNS = tested on: SF-295 CNS
UACC-257 melanoma = tested on: UACC-257 melanoma
SR leukemia = tested on: SR leukemia
OVCAR-5 ovarian = tested on: OVCAR-5 ovarian
A549 NSCLC = tested on: A549 NSCLC
OVCAR-4 ovarian = tested on: OVCAR-4 ovarian
COLO 205 colon = tested on: COLO 205 colon
MCF7 breast = tested on: MCF7 breast
SNB-19 CNS = tested on: SNB-19 CNS
MDA-MB-435 = tested on: MDA-MB-435
HT29 colon = tested on: HT29 colon
SK-OV-3 ovarian = tested on: SK-OV-3 ovarian
KM12 colon = tested on: KM12 colon
MALME-3M melanoma = tested on: MALME-3M melanoma
U251 CNS = tested on: U251 CNS
HS 578T breast = tested on: HS 578T breast
HOP-92 NSCLC = tested on: HOP-92 NSCLC
HOP-62 NSCLC = tested on: HOP-62 NSCLC
ACHN renal = tested on: ACHN renal
HCC-2998 colon = tested on: HCC-2998 colon
SK-MEL-5 melanoma = tested on: SK-MEL-5 melanoma
A498 renal = tested on: A498 renal
NCI-H522 lung = tested on: NCI-H522 lung
SN12C renal = tested on: SN12C renal
K-562 leukemia = tested on: K-562 leukemia
DU-145 prostate = tested on: DU-145 prostate
OVCAR-8 ovarian = tested on: OVCAR-8 ovarian
UO-31 renal = tested on: UO-31 renal
HCT-116 colon = tested on: HCT-116 colon
SF-539 CNS = tested on: SF-539 CNS
NCI-H23 lung = tested on: NCI-H23 lung
RPMI-8226 leukemia = tested on: RPMI-8226 leukemia
MDA-MB-468 breast = tested on: MDA-MB-468 breast
UACC-62 melanoma = tested on: UACC-62 melanoma
CAKI-1 renal = tested on: CAKI-1 renal
HCT-15 colon = tested on: HCT-15 colon
SW-620 colon = tested on: SW-620 colon
CCRF-CEM leukemia = tested on: CCRF-CEM leukemia
PC-3 prostate = tested on: PC-3 prostate
SK-MEL-28 melanoma = tested on: SK-MEL-28 melanoma
SK-MEL-2 melanoma = tested on: SK-MEL-2 melanoma
MDA-MB-231 breast = tested on: MDA-MB-231 breast
786-0 renal = tested on: 786-0 renal
HL-60(TB) leukemia = tested on: HL-60(TB) leukemia
EKVX NSCLC = tested on: EKVX NSCLC
RXF 393 renal = tested on: RXF 393 renal
MOLT-4 leukemia = tested on: MOLT-4 leukemia
T-47D breast = tested on: T-47D breast

SMILES: O=C(O)c1ccc(-c2ccc(/C=N/NC(=O)c3[nH]c4ccc(Br)cc4c3-c3ccccc3)o2)cc1
- GI50 (NCI-H226 lung): 34.5 µM
- TGI (NCI-H226 lung): > 100 µM
- GI50 (LOX IMVI melanoma): 20 µM
- TGI (LOX IMVI melanoma): > 100 µM
- GI50 (TK-10 renal): 38.7 µM
- TGI (TK-10 renal): > 100 µM
- GI50 (NCI-H460 lung): 21.3 µM
- TGI (NCI-H460 lung): 72.8 µM
- GI50 (SF-268 CNS): 20.8 µM
- TGI (SF-268 CNS): > 100 µM
- GI50 (IGROV1 ovarian): 25.3 µM
- TGI (IGROV1 ovarian): 86.1 µM
- GI50 (SNB-75 CNS): 4.02 µM
- TGI (SNB-75 CNS): 33.3 µM
- GI50 (M14 melanoma): 29.8 µM
- TGI (M14 melanoma): > 100 µM
- GI50 (BT-549 breast): 20.1 µM
- TGI (BT-549 breast): 51.7 µM
- GI50 (OVCAR-3 ovarian): 12.2 µM
- TGI (OVCAR-3 ovarian): 43.1 µM
- GI50 (SF-295 CNS): 20.4 µM
- TGI (SF-295 CNS): 55.8 µM
- GI50 (UACC-257 melanoma): 24.5 µM
- TGI (UACC-257 melanoma): > 100 µM
- GI50 (SR leukemia): 11.8 µM
- TGI (SR leukemia): 45.6 µM
- GI50 (OVCAR-5 ovarian): 36.5 µM
- TGI (OVCAR-5 ovarian): > 100 µM
- GI50 (A549 NSCLC): 32.3 µM
- TGI (A549 NSCLC): > 100 µM
- GI50 (OVCAR-4 ovarian): 21.1 µM
- TGI (OVCAR-4 ovarian): > 100 µM
- GI50 (COLO 205 colon): 26.4 µM
- TGI (COLO 205 colon): 83.8 µM
- GI50 (MCF7 breast): 28.3 µM
- TGI (MCF7 breast): > 100 µM
- GI50 (SNB-19 CNS): 21.6 µM
- TGI (SNB-19 CNS): > 100 µM
- GI50 (MDA-MB-435): 12.5 µM
- TGI (MDA-MB-435): 41.1 µM
- GI50 (HT29 colon): 21.9 µM
- TGI (HT29 colon): 54.7 µM
- GI50 (SK-OV-3 ovarian): 28.3 µM
- TGI (SK-OV-3 ovarian): 76.7 µM
- GI50 (KM12 colon): 22.4 µM
- TGI (KM12 colon): 66.2 µM
- GI50 (MALME-3M melanoma): 19.1 µM
- TGI (MALME-3M melanoma): > 100 µM
- GI50 (U251 CNS): 20 µM
- TGI (U251 CNS): 83.1 µM
- GI50 (HS 578T breast): 3.87 µM
- TGI (HS 578T breast): 72 µM
- GI50 (HOP-92 NSCLC): 10.6 µM
- TGI (HOP-92 NSCLC): 42.2 µM
- GI50 (HOP-62 NSCLC): 29.5 µM
- TGI (HOP-62 NSCLC): > 100 µM
- GI50 (ACHN renal): 29.3 µM
- TGI (ACHN renal): > 100 µM
- GI50 (HCC-2998 colon): 16.1 µM
- TGI (HCC-2998 colon): 30.7 µM
- GI50 (SK-MEL-5 melanoma): 15.7 µM
- TGI (SK-MEL-5 melanoma): 33 µM
- GI50 (A498 renal): 23.6 µM
- TGI (A498 renal): 85.7 µM
- GI50 (NCI-H522 lung): 7.64 µM
- TGI (NCI-H522 lung): 34.4 µM
- GI50 (SN12C renal): 24.8 µM
- TGI (SN12C renal): 80.8 µM
- GI50 (K-562 leukemia): 20.8 µM
- TGI (K-562 leukemia): 98.4 µM
- GI50 (DU-145 prostate): 36.4 µM
- TGI (DU-145 prostate): > 100 µM
- GI50 (OVCAR-8 ovarian): 20.7 µM
- TGI (OVCAR-8 ovarian): 63.4 µM
- GI50 (UO-31 renal): 25 µM
- TGI (UO-31 renal): > 100 µM
- GI50 (HCT-116 colon): 27.7 µM
- TGI (HCT-116 colon): > 100 µM
- GI50 (SF-539 CNS): 14.7 µM
- TGI (SF-539 CNS): 36.7 µM
- GI50 (NCI-H23 lung): 34.1 µM
- TGI (NCI-H23 lung): > 100 µM
- GI50 (RPMI-8226 leukemia): 25.9 µM
- TGI (RPMI-8226 leukemia): > 100 µM
- GI50 (MDA-MB-468 breast): 19.5 µM
- TGI (MDA-MB-468 breast): 79.6 µM
- GI50 (UACC-62 melanoma): 4.98 µM
- TGI (UACC-62 melanoma): 25.2 µM
- GI50 (CAKI-1 renal): 22 µM
- TGI (CAKI-1 renal): 98.7 µM
- GI50 (HCT-15 colon): 18.6 µM
- TGI (HCT-15 colon): > 100 µM
- GI50 (SW-620 colon): 25.4 µM
- TGI (SW-620 colon): > 100 µM
- GI50 (CCRF-CEM leukemia): 19.3 µM
- TGI (CCRF-CEM leukemia): > 100 µM
- GI50 (PC-3 prostate): 25.1 µM
- TGI (PC-3 prostate): > 100 µM
- GI50 (SK-MEL-28 melanoma): 15.8 µM
- TGI (SK-MEL-28 melanoma): > 100 µM
- GI50 (SK-MEL-2 melanoma): 14.6 µM
- TGI (SK-MEL-2 melanoma): 37.3 µM
- GI50 (MDA-MB-231 breast): 27.9 µM
- TGI (MDA-MB-231 breast): > 100 µM
- GI50 (786-0 renal): 24.2 µM
- TGI (786-0 renal): > 100 µM
- GI50 (HL-60(TB) leukemia): 12.4 µM
- TGI (HL-60(TB) leukemia): 36.1 µM
- GI50 (EKVX NSCLC): 28.8 µM
- TGI (EKVX NSCLC): > 100 µM
- GI50 (RXF 393 renal): 11.3 µM
- TGI (RXF 393 renal): 95.1 µM
- GI50 (MOLT-4 leukemia): 20.3 µM
- TGI (MOLT-4 leukemia): 96.6 µM
- GI50 (T-47D breast): 30.9 µM
- TGI (T-47D breast): > 100 µM

— PubChem BioAssay (NCI)
